Columns and labels:
Test in all cases: relative viability (nuclei count vs DMSO), 5 days (fraction); higher = more cells survive
A-427 = system: A-427
In short: (§1)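 Lung cancer cell lines in 1536-well plates were dosed by pin tool the day after seeding, either with one drug alone or with a fixed anchor-drug dose plus five library-drug doses (not always all listed) in √10 steps. After 5 days, cells were fixed and their nuclei stained in one step (final 0.05% Triton X-100, 1% formaldehyde, 1 ug/ml Hoechst), then counted on 4× images. Relative viability is the nuclei count in treated wells divided by that in vehicle wells. Values are medians of duplicate plates.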

NCI-H650 = system: NCI-H650
In short: as §1

NCI-H1993 = system: NCI-H1993
In short: as §1

NCI-H1915 = system: NCI-H1915
In short: as §1

NCI-H1793 = system: NCI-H1793
In short: as §1

NCI-H1666 = system: NCI-H1666
In short: as §1

NCI-H838 = system: NCI-H838
In short: as §1

EKVX = system: EKVX
In short: as §1

NCI-H23 = system: NCI-H23
In short: as §1

NCI-H1648 = system: NCI-H1648
In short: as §1

LOU-NH91 = system: LOU-NH91
In short: as §1

NCI-H460 = system: NCI-H460
In short: as §1

RERF-LC-KJ = system: RERF-LC-KJ
In short: as §1

LC-2-ad = system: LC-2-ad
In short: as §1

LU99A = system: LU99A
In short: as §1

LCLC-97TM1 = system: LCLC-97TM1
In short: as §1

NCI-H1355 = system: NCI-H1355
In short: as §1

PC-3 [JPC-3] = system: PC-3 [JPC-3]
In short: as §1

NCI-H2347 = system: NCI-H2347
In short: as §1

BEN = system: BEN
In short: as §1

## CCCCCCCCCCCC1=C(O)C(=O)C=C(O)C1=O [Embelin] + NC(=O)Nc1cc(-c2cccc(F)c2)sc1C(=O)N[C@H]1CCCNC1 [AZD7762] (partner 0.2 µM)
A-427; first compound 0.08 µM
  relative viability: 0.75
A-427; first compound 0.8 µM
  relative viability: 0.877
A-427; first compound 2.53 µM
  relative viability: 0.737
A-427; first compound 8 µM
  relative viability: 0.452
NCI-H650; first compound 0.08 µM
  relative viability: 0.889
NCI-H650; first compound 0.8 µM
  relative viability: 1.03
NCI-H650; first compound 2.53 µM
  relative viability: 1.01
NCI-H650; first compound 8 µM
  relative viability: 1.27
NCI-H1993; first compound 0.08 µM
  relative viability: 0.821
NCI-H1993; first compound 0.8 µM
  relative viability: 0.723
NCI-H1993; first compound 2.53 µM
  relative viability: 0.89
NCI-H1993; first compound 8 µM
  relative viability: 0.606
NCI-H1915; first compound 0.08 µM
  relative viability: 0.72
NCI-H1915; first compound 0.8 µM
  relative viability: 0.764
NCI-H1915; first compound 2.53 µM
  relative viability: 0.751
NCI-H1915; first compound 8 µM
  relative viability: 0.614
NCI-H1793; first compound 0.08 µM
  relative viability: 0.635
NCI-H1793; first compound 0.8 µM
  relative viability: 0.927
NCI-H1793; first compound 2.53 µM
  relative viability: 0.472
NCI-H1793; first compound 8 µM
  relative viability: 0.408
NCI-H1666; first compound 0.08 µM
  relative viability: 0.871
NCI-H1666; first compound 0.8 µM
  relative viability: 0.885
NCI-H1666; first compound 2.53 µM
  relative viability: 0.782
NCI-H1666; first compound 8 µM
  relative viability: 0.922
NCI-H838; first compound 0.08 µM
  relative viability: 0.946
NCI-H838; first compound 0.8 µM
  relative viability: 1.05
NCI-H838; first compound 2.53 µM
  relative viability: 0.912
NCI-H838; first compound 8 µM
  relative viability: 0.992
EKVX; first compound 0.08 µM
  relative viability: 0.698
EKVX; first compound 0.8 µM
  relative viability: 0.748
EKVX; first compound 2.53 µM
  relative viability: 0.662
EKVX; first compound 8 µM
  relative viability: 0.749
NCI-H23; first compound 0.08 µM
  relative viability: 0.27
NCI-H23; first compound 0.8 µM
  relative viability: 0.297
NCI-H23; first compound 2.53 µM
  relative viability: 0.3
NCI-H23; first compound 8 µM
  relative viability: 0.248
NCI-H1648; first compound 0.08 µM
  relative viability: 0.598
NCI-H1648; first compound 0.8 µM
  relative viability: 0.689
NCI-H1648; first compound 2.53 µM
  relative viability: 0.628
NCI-H1648; first compound 8 µM
  relative viability: 0.709
LOU-NH91; first compound 0.08 µM
  relative viability: 0.795
LOU-NH91; first compound 0.8 µM
  relative viability: 0.932
LOU-NH91; first compound 2.53 µM
  relative viability: 0.779
LOU-NH91; first compound 8 µM
  relative viability: 0.729
NCI-H460; first compound 0.08 µM
  relative viability: 0.658
NCI-H460; first compound 0.8 µM
  relative viability: 0.717
NCI-H460; first compound 2.53 µM
  relative viability: 0.585
NCI-H460; first compound 8 µM
  relative viability: 0.378
RERF-LC-KJ; first compound 0.08 µM
  relative viability: 1.02
RERF-LC-KJ; first compound 0.8 µM
  relative viability: 1.15
RERF-LC-KJ; first compound 2.53 µM
  relative viability: 1.13
RERF-LC-KJ; first compound 8 µM
  relative viability: 1
LC-2-ad; first compound 0.08 µM
  relative viability: 0.884
LC-2-ad; first compound 0.8 µM
  relative viability: 0.888
LC-2-ad; first compound 2.53 µM
  relative viability: 0.916
LC-2-ad; first compound 8 µM
  relative viability: 0.814
LU99A; first compound 0.08 µM
  relative viability: 0.335
LU99A; first compound 0.8 µM
  relative viability: 0.4
LU99A; first compound 2.53 µM
  relative viability: 0.372
LU99A; first compound 8 µM
  relative viability: 0.233
LCLC-97TM1; first compound 0.08 µM
  relative viability: 0.223
LCLC-97TM1; first compound 0.8 µM
  relative viability: 0.248
LCLC-97TM1; first compound 2.53 µM
  relative viability: 0.205
LCLC-97TM1; first compound 8 µM
  relative viability: 0.268
NCI-H1355; first compound 0.08 µM
  relative viability: 0.821
NCI-H1355; first compound 0.8 µM
  relative viability: 0.802
NCI-H1355; first compound 2.53 µM
  relative viability: 0.836
NCI-H1355; first compound 8 µM
  relative viability: 0.743
PC-3 [JPC-3]; first compound 0.08 µM
  relative viability: 0.765
PC-3 [JPC-3]; first compound 0.8 µM
  relative viability: 0.888
PC-3 [JPC-3]; first compound 2.53 µM
  relative viability: 0.797
PC-3 [JPC-3]; first compound 8 µM
  relative viability: 0.724
NCI-H2347; first compound 0.08 µM
  relative viability: 0.841
NCI-H2347; first compound 0.8 µM
  relative viability: 0.85
NCI-H2347; first compound 2.53 µM
  relative viability: 0.722
NCI-H2347; first compound 8 µM
  relative viability: 0.67
BEN; first compound 0.08 µM
  relative viability: 0.63
BEN; first compound 0.8 µM
  relative viability: 0.765
BEN; first compound 2.53 µM
  relative viability: 0.716
BEN; first compound 8 µM
  relative viability: 0.542
